Measured values as given in patent publication US8436039B2, “Inhibitors of the ATB(0,+) transporter and uses thereof” (Georgia Health Sciences University Research Institute, Inc., priority 2008, dated 2013).

Assays:
Format in all cases: cell-based
mouse ATB^0,+ [1] = target: T1, mouse ATB^0,+ (Mus musculus, UniProt Q9JMA9); test: Inhibition of ATB^0,+-mediated glycine uptake in HRPE cells expressing cloned mouse ATB^0,+; conditions: glycine 10 μM; inhibitor 1 mM; 30 min; NaCl; HRPE cells
T1 sequence (Q9JMA9 1-638): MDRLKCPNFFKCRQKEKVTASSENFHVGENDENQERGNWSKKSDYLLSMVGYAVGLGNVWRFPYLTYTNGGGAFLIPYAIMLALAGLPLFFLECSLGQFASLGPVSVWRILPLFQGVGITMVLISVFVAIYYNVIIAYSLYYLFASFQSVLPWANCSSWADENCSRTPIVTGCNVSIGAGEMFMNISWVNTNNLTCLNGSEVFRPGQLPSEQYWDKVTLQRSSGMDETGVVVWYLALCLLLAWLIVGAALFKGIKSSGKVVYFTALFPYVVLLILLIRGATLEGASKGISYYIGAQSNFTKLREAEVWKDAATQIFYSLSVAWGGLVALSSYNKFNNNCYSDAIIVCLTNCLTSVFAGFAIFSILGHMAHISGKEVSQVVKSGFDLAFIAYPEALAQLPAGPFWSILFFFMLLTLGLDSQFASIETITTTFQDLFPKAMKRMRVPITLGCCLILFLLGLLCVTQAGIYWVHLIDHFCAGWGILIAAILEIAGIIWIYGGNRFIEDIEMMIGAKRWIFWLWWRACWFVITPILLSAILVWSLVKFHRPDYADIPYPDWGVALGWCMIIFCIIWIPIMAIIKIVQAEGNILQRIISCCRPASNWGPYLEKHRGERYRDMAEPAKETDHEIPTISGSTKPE

mouse ATB^0,+ [2] = target: T1, mouse ATB^0,+; test: Substrate-induced inward currents in X. laevis oocytes expressing mouse ATB^0,+ (two-microelectrode voltage clamp); conditions: voltage clamp, NaCl; for inward currents induced in ATB^0,+-expressing oocytes: 2.5 mM
Experimental: (§1) Capped cRNA from the cloned mouse or human ATB^0,+ cDNA was synthesized using the mMESSAGE mMACHTNE kit (Ambion, Austin, Tex., U.S.A.). Mature oocytes (stage IV or V) from X. laevis were injected with 50 ng of cRNA. Uninjected oocytes served as controls. The oocytes were used for electrophysiological studies 3-6 days after cRNA injection. Electrophysiological studies were performed by the two-microelectrode voltage-clamp method (Nakanishi et al., 2001, J. Physiol. 532, 297-304). Oocytes were superfused with an NaCl-containing buffer (100 mM NaCl, 2 mM KCl, 1 mM MgCl2, 1 mM CaCl2, 3 mM Hepes, 3 mM Mes and 3 mM Tris, pH 7.5), followed by the same buffer containing tryptophan derivatives. The membrane potential was clamped at −50 mV. The differences between the steady-state currents measured in the presence and absence of substrates were considered as the substrate-induced currents. In the analysis of the saturation kinetics of substrate-induced currents, the kinetic parameter K0.5 (i.e. substrate concentration necessary for induction of half-maximal current) was calculated by fitting the values of the substrate-induced currents to the Michaelis-Menten equation. The Na^+ and Cl^− activation kinetics of substrate-induced currents were analysed by measuring the substrate-specific currents in the presence of increasing concentrations of Na^+ (concentration of Cl^− kept constant at 100 mM) or in the presence of increasing concentrations of Cl^− (concentration of Na^+ kept constant at 100 mM). In these experiments, the composition of the superfusion buffer was modified to contain 2 mM potassium gluconate, 1 mM MgSO4 and 1 mM calcium gluconate in place of KCl, MgCl2 and CaCl2 respectively. The data from these experiments were analysed by the Hill equation to determine the Hill coefficient (h; number of Na^+ and Cl^− ions involved in the activation process). The kinetic parameters were determined by using the commercially available computer program Sigma Plot, version 6.0 (SPSS, Chicago, Ill., U.S.A.). Uninjected oocytes were used to determine the currents induced by tryptophan derivatives due to entry via transporters that may be constitutively expressed in the oocytes. At a concentration of 2.5 mM, the currents induced by these compounds were in the range of 0-3 nA in uninjected oocytes. These currents were less than 2% of the corresponding currents induced in ATB^0,+ cRNA-injected oocytes. Therefore the endogenous currents associated with the constitutively expressed transporters were not considered in the analysis of kinetic parameters of ATB^0,+ transport activity.
The above studies with the mammalian cell expression system have focused on the interaction of 1-methyltryptophan and other tryptophan derivatives with ATB^0,+ by examining the effects of these compounds on the transporter-mediated glycine uptake. These studies have shown convincingly that 1-methyltryptophan interacts with ATB^0,+, with the L-isomer having much higher affinity for the transporter than the D-isomer. However, these studies have not shown whether or not 1-methyltryptophan is actually a transportable substrate for ATB^0,+. It is possible that 1-methyltryptophan inhibits ATB^0,+-mediated glycine uptake simply by blocking the interaction of glycine with the substrate-binding site of the transporter, rather than by actually competing with glycine for the transport process. […] We wanted to know whether 1-methyltryptophan can actually be transported by ATB^0,+. For this, we used the X. laevis oocyte expression system. Since the transport process mediated by ATB^0,+ is electrogenic, exposure of ATB^0,+-expressing oocytes to transportable substrates will induce an inward current in an Na^+- and Cl^−-dependent manner. Exposure of the same oocytes to blockers will interfere with currents induced by transportable substrates, but will not induce currents by themselves. […]

ATB^0,+ in MCF7 cells = target: T2, ATB^0,+ in MCF7 cells (Homo sapiens, UniProt Q9UN76); test: D-serine uptake in MCF7 cells (constitutively expressed ATB^0,+); conditions: MCF7 cells; for IC50: D-serine 5 μM, NaCl, read-out: IC50 for inhibition of D-serine uptake
T2 construct: host or cells: MCF7
T2 sequence (Q9UN76 1-642): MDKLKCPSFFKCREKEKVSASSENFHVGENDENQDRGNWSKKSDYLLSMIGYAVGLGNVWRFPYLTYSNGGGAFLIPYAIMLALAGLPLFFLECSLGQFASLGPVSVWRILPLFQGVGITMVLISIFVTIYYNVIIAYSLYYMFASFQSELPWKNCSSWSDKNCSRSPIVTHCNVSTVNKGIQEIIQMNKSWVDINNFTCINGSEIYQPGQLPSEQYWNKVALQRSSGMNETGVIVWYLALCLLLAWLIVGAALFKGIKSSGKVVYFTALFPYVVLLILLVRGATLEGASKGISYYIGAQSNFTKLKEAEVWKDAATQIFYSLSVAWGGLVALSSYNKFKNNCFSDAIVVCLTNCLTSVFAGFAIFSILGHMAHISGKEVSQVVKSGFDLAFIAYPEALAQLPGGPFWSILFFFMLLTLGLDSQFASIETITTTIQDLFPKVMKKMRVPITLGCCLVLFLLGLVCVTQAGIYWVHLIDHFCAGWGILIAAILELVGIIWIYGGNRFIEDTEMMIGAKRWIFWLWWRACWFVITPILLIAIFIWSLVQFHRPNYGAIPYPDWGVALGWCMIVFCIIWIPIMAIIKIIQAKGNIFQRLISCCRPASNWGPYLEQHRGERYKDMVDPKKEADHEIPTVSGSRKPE
Experimental: Cells were seeded and grown in 24-well culture plates to confluency and used for uptake measurements. Radiolabelled glycine or D-serine was used as the substrate to determine the transport function of ATB^0,+. Uptake measurements were routinely made in an NaCl-containing buffer (25 mM Hepes/Tris buffer, pH 7.4, 140 mM NaCl, 5.4 mM KCl, 1.8 mM CaCl2, 0.8 mM MgSO4 and 5 mM glucose). Ion dependence of the transport process was evaluated by studying the uptake activity in buffers of varying compositions. NaCl in the uptake buffer was replaced iso-osmotically with NMDG (N-methyl-D-glucamine) chloride to prepare an Na^+-free buffer, and with sodium gluconate to prepare a Cl^−-free buffer. Linear uptake rates were determined by employing a 10 min incubation period, based on time course experiments. Na^+-activation kinetics was analysed by studying the uptake rates in the presence of varying concentrations of Na^+ (2.5-140 mM) in the uptake buffer with Cl^− concentration kept constant at 140 mM. This was done by replacing NaCl with appropriate concentrations of NMDG. Cl^−-activation kinetics was analysed by studying the uptake rates in the presence of varying concentrations of Cl^− (2.5-100 mM) in the uptake buffer with Na^+ concentration kept constant at 140 mM. This was done by replacing NaCl with appropriate concentrations of sodium gluconate. Uptake data for Na^+- and Cl^−-activation kinetics were analysed using the Hill equation, and values for K0.5 for Na^+ and Cl^− and for the Hill coefficient (h) were determined by linear and non-linear regression methods. A commercially available software program (Sigma Plot, version 6.0; SPSS) was used for this purpose. Substrate specificity of the uptake process was evaluated by monitoring the effects of unlabelled amino acids (5 mM) on the uptake of radiolabelled glycine or D-serine (5 μM: radiolabelled substrate, 0.05 μM; unlabelled substrate, 4.95 μM).
The kinetic nature of inhibition of D-serine uptake by α-methyl-DL-tryptophan was investigated in MCF7 cells by monitoring the uptake at increasing concentrations of D-serine (range, 50-2000 μM) in the absence and presence of 100 μM α-methyl-DL-tryptophan. The kinetic parameters were calculated by linear regression (Eadie-Hofstee plots) and the values were confirmed by non-linear regression.
We employed a similar experimental strategy to detect specifically the transport function of ATB^0,+ in the remaining seven cell lines. […] We also investigated the effect of α-methyl-DL-tryptophan on D-serine uptake in MCF7 cells.

human LAT1/4F2hc = human LAT1/4F2hc (Homo sapiens, UniProt Q01650); test: Inhibition of LAT1 transport function: L-valine uptake in HRPE cells co-expressing human LAT1 and human 4F2hc; conditions: 1 mM; L-[14C]valine 0.75 μM; 5 min
Chain of human LAT1/4F2hc (Q01650 whole entry): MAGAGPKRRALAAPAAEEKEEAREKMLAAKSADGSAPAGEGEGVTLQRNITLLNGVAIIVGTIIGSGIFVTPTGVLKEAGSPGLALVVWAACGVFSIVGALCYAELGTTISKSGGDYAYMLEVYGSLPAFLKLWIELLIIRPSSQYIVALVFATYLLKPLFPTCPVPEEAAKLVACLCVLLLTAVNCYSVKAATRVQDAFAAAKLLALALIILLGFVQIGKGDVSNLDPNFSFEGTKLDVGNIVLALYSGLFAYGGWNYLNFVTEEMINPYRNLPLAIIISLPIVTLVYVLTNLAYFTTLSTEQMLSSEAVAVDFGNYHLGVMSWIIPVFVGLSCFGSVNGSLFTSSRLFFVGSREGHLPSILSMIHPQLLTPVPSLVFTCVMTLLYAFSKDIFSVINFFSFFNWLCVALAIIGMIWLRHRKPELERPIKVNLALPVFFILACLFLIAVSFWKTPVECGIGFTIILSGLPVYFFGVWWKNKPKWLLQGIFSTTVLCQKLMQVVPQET
Chain of human LAT1/4F2hc (P08195 102-630 partner): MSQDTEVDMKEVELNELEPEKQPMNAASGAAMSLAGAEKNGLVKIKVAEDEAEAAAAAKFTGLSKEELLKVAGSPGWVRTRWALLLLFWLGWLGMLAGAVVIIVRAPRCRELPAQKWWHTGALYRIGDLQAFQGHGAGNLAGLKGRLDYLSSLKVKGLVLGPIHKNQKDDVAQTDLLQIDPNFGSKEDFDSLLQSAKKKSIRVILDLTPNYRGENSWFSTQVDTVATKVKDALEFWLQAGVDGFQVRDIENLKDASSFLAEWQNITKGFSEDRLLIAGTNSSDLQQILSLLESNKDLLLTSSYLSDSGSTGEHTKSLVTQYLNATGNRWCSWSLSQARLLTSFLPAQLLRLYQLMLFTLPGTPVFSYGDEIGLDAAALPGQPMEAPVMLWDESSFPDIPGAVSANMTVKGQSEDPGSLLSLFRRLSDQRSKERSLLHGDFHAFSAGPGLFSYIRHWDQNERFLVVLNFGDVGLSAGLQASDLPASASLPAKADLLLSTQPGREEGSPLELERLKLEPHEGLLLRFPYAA

human ATB^0,+ = target: T3, human ATB^0,+ (Homo sapiens, UniProt Q9UN76); test: Block of inward currents induced by amino acid mixture simulating plasma in X. laevis oocytes expressing human ATB^0,+; conditions: even at 1 mM; amino acid mixture simulating plasma
T3 construct: The human ATB^0,+ cDNA was cloned from an MCF7 cell (a human mammary epithelial cancer cell line) cDNA library; expressed in transfected cells; host or cells: Xenopus laevis oocytes injected with 50 ng capped cRNA
T3 sequence (Q9UN76 1-642): T2 sequence (Q9UN76 1-642)
Experimental: as §1
These studies with α-methyl-DL-tryptophan as a blocker of ATB^0,+ were carried out with L-tryptophan at sub-saturating concentrations. […] Therefore, using the Xenopus oocyte heterologous expression system, we monitored the transport activity of human ATB^0,+ in the presence of an amino acid mixture consisting of 18 different amino acids, each at its respective physiological concentration found in plasma (Glew et al., 2004, Clin. Chim. Acta 342, 179-185) (Table 1). Inward currents were detected under these conditions in oocytes expressing human ATB^0,+. […] We then monitored the ability of α-methyl-DL-tryptophan to block the inward currents induced by the same mixture of amino acids in oocytes expressing human ATB^0,+ (FIG. 4B). […]

SMILES: Cc1cccc2[nH]cc(CC(N)C(=O)O)c12 (racemic) [4-methyl-DL-tryptophan]
- inhibition of ATB^0,+-specific glycine uptake (mouse ATB^0,+ [1]): inhibited

SMILES: Cc1ccc2[nH]cc(CC(N)C(=O)O)c2c1 (racemic) [5-methyl-DL-tryptophan]
- inhibition of ATB^0,+-specific glycine uptake (mouse ATB^0,+ [1]): inhibited

SMILES: Cc1ccc2c(CC(N)C(=O)O)c[nH]c2c1 (racemic) [6-methyl-DL-tryptophan]
- inhibition of ATB^0,+-specific glycine uptake (mouse ATB^0,+ [1]): inhibited

SMILES: N[C@@H](Cc1c[nH]c2ccc(O)cc12)C(=O)O [5-hydroxy-L-tryptophan]
- inhibition of ATB^0,+-specific glycine uptake (mouse ATB^0,+ [1]): inhibited

SMILES: NCCc1c[nH]c2ccc(O)cc12 [5-hydroxytryptamine]
- inhibition of ATB^0,+-specific glycine uptake (mouse ATB^0,+ [1]): not able to inhibit
- inward currents induced in ATB^0,+-expressing oocytes (mouse ATB^0,+ [2]): did not induce currents

SMILES: N=C(N)NCCC[C@H](N)C(=O)O [Arginine]
- IC50 (ATB^0,+ in MCF7 cells): 250 to 500 µM

SMILES: N[C@H](CO)C(=O)O [D-serine]
- Kt for D-serine uptake (ATB^0,+ in MCF7 cells; absence of the blocker): 517 ± 38 µM
- Vmax for D-serine uptake (ATB^0,+ in MCF7 cells; absence of the blocker): 32.4±1.5 nmol/mg of protein per 15 min

SMILES: N[C@H](Cc1c[nH]c2ccccc12)C(=O)O [D-tryptophan]
- inhibition of ATB^0,+-specific glycine uptake (mouse ATB^0,+ [1]): inhibited
- Michaelis constant (K0.5) of substrate-induced currents (mouse ATB^0,+ [2]; saturation kinetics): 288 ± 48 µM

SMILES: COC(=O)[C@@H](N)Cc1c[nH]c2ccccc12 [L-tryptophan methyl ester]
- inhibition of ATB^0,+-specific glycine uptake (mouse ATB^0,+ [1]): inhibited

SMILES: CC(=O)N[C@@H](Cc1c[nH]c2ccccc12)C(=O)O [N-acetyl-L-tryptophan]
- inhibition of ATB^0,+-specific glycine uptake (mouse ATB^0,+ [1]): not able to inhibit
- inward currents induced in ATB^0,+-expressing oocytes (mouse ATB^0,+ [2]): did not induce currents

SMILES: NCCCC[C@H](N)C(=O)O [lysine]
- IC50 (ATB^0,+ in MCF7 cells): 250 to 500 µM

SMILES: N[C@@H](Cc1c[nH]c2ccccc12)C(=O)O [tryptophan]
- effect on cDNA-induced valine uptake (human LAT1/4F2hc): abolished completely

SMILES: C[C@@](N)(Cc1c[nH]c2ccccc12)C(=O)O [α-methyl-D-tryptophan, α-Methyl-D-Tryptophan]
- inhibition at 1000 µM (human ATB^0,+): ≤ 40%
